The values that follow come from PMC10591299, “Targeting SHP2 with an Active Site Inhibitor Blocks Signaling and Breast Cancer Cell Phenotypes” (ACS Bio & Med Chem Au, 2023).

One test addresses T1, SHP2 (Homo sapiens, UniProt Q06124).
T1 construct: endogenous in cells
T1 sequence (Q06124 1-593): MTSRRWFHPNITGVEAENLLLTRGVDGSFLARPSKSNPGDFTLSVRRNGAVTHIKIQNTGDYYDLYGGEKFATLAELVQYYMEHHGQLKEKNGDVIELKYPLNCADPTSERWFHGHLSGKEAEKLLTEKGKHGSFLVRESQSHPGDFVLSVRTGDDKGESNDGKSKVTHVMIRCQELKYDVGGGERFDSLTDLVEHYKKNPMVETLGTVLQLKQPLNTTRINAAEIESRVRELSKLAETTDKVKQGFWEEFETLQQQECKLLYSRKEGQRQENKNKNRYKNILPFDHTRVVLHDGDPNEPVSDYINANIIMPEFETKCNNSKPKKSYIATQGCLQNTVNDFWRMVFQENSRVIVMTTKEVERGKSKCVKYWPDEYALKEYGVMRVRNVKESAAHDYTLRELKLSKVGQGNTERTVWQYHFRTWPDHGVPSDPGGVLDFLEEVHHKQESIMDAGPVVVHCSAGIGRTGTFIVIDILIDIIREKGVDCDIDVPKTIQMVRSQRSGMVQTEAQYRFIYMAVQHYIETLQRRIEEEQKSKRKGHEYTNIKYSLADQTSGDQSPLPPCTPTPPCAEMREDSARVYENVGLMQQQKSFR
Description: Cellular thermal shift assay (CETSA), SHP2 immunoblot. The format is binding. Conditions: 100 μM CNBCA, cell lysate. An excerpt: (§1) First, we used the cellular thermal shift assay (CETSA) to show whether CNBCA binds to endogenous full-length SHP2 under cellular contexts. The CETSA assay is based on the principle that specific inhibitors bind to a target protein and confer relative stability from heat-induced denaturation and precipitation when compared to a nontarget protein present in the same milieu.[34] Accordingly, we performed CETSA to test the effect of CNBCA on the SHP2 protein stability and compared it with the nontarget PTP1B protein as described in the materials and methods.
(§2) After heat treatment, supernatants were analyzed by immunoblotting (IB) for SHP2 and the nontarget phosphatase PTP1B. […] To provide semiquantitative data, band densities of both SHP2 and PTP1B were measured and presented as bar graph. […] On the other hand, the nontarget protein PTP1B was reduced to approximately 50% at 49 °C, to 25% at 55 °C, and to less than 10% at 58 °C (Figure 3B and D).
(§3) For the CETSA study, total protein extracts (TPE) prepared from two breast cancer cells, the triple-negative MDA-MB468 and the HER2-positive JIMT-1 cells, were used. Briefly, TPE from the two cell lines were cleared by centrifugation, mixed with CNBCA at 100 μM concentration (the maximum amount used in the IC50 studies), and incubated for 10 min at room temperature to allow binding. The mixture was then divided into 100 μL aliquots, treated with heat for 10 min at different temperatures, ranging from 37 to 64 °C that differ by 3 °C intervals, cooled on ice for 10 min, centrifuged at 20,000g for 20 min to remove precipitated proteins, and the supernatants analyzed by immunoblotting (IB) for SHP2 and the nontarget PTP, PTP1B. Aliquots that were mixed with CNBCA, but not treated with heat were used as positive controls for comparison.
For orientation: In western blotting, separated proteins are transferred to a membrane and probed.

The target in a further test is T2, PTP1B (Homo sapiens, UniProt P18031).
T2 construct: compared it with the nontarget PTP1B protein; endogenous in cells
T2 sequence (P18031 1-435): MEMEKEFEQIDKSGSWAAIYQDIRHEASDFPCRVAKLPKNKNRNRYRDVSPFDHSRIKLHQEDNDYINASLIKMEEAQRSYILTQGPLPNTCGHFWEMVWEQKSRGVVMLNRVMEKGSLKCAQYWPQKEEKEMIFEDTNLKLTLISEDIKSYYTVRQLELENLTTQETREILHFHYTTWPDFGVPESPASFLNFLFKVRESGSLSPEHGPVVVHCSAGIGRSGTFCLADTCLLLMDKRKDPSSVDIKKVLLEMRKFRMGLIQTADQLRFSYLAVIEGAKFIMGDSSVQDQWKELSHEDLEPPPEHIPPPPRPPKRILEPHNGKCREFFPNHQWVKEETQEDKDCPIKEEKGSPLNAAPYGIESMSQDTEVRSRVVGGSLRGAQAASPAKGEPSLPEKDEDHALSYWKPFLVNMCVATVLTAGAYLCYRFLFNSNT
Nature of the test: Cellular thermal shift assay (CETSA), nontarget PTP1B immunoblot. It is filed as binding. Particulars: 100 μM CNBCA, cell lysate.
From the text: as §1, §2, §3

On to `CCCCCCCCCOc1ccc(-c2ccc(C(=O)O)cc2)cc1CCCC(=O)O` [CNBCA, 3′-(3-carboxypropyl)-4′-(nonyloxy)-[1,1′-biphenyl]-4-carboxylic acid], for which the “SHP2 stabilized in solution (band density)” value is around 100% at SHP2 (heat 49 °C 10 min), 95% on SHP2 (heat 52 °C 10 min), 70% at SHP2 (heat 55 °C 10 min) and 45% on SHP2 (heat 58 °C 10 min). Further, the “PTP1B remaining in solution (band density)” value is recorded as “approximately 50%” at PTP1B (heat 49 °C 10 min), 25% on PTP1B (heat 55 °C 10 min) and “less than 10%” at PTP1B (heat 58 °C 10 min).
